Data from patent publication US6350585B1, “Reagent for assay of amylase isozyme activity” (priority 1998, dated 2002).

Tests used:
[1] = target: T1, S-type amylase (Calibzyme S) (Homo sapiens, UniProt P0DUB6); experiment: amylase isozyme activity assay with sodium azide as activator, S-type amylase sample; type: biochemical; details: for Change in absorbance, Containing Antibody (Composition C) / Change in absorbance, Without antibody (Composition D) / Relative sensitivity / Percent residual enzyme activity: S-type amylase; for Relative sensitivity: G3CNP at 300 mM = 100; for Percent residual enzyme activity: composition C/D
T1 construct: purchased International Reagents Corporation Calibzyme S
T1 sequence (P0DUB6 16-511): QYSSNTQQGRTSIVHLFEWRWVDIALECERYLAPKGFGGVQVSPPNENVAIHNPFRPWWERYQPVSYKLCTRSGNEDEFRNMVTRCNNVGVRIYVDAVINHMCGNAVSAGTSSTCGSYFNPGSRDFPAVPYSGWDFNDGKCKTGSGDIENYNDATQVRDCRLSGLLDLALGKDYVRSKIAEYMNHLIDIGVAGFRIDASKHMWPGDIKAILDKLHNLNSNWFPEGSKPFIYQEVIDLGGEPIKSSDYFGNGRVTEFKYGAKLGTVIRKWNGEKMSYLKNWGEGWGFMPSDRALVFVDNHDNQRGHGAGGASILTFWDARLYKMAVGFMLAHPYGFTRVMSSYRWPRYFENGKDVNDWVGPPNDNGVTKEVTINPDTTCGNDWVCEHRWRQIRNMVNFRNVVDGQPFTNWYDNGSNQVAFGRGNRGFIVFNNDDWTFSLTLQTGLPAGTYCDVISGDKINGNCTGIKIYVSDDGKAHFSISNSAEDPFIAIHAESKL
Experimental: (§1) S-type amylase inhibitory antibody 88E8 (manufactured by Roche Diagnostics K.K.) 20 mg/L
(§2) S-type amylase inhibitory antibody 66C7 (manufactured by Roche Diagnostics K.K.) 5 mg/L
(§3) Substrate (GalG2CNP (Example) or G3CNP (Comparative Example)) 2.6 mM
(3) S-type Amylase (Calibzyme S, Manufactured by International Reagents Corporation)
(§4) Each of the above-mentioned samples (0.05 mL) was added to respective reagent C and D (3 mL) and the mixtures were left standing at 37° C. for 3 minutes. Then, change in absorbance at 405 nm was assayed and change in absorbance per minute was calculated.
(§5) In the Tables, P is the case where P-type amylase was used as the sample, and S is the case where S-type amylase was used. The relative sensitivity of P and S is based on the change in absorbance of G3CNP as 100, wherein sodium azide was 300 mM.
(§6) Percent residual enzyme activity and relative sensitivity were calculated by the following formulas.
(§7) Percent residual enzyme activity (%)=(change in absorbance of composition C)/(change in absorbance of composition D)×100
(§8) Relative sensitivity (%)=(change in absorbance of composition D)/(change in absorbance of Comparative Example wherein sodium azide was 300 mM)×100

[2] = target: T2, P-type amylase (Calibzyme P) (Homo sapiens, UniProt P04746); experiment: amylase isozyme activity assay with sodium azide as activator, P-type amylase sample; type: biochemical; details: for Percent residual enzyme activity: composition C/D
T2 construct: purchased International Reagents Corporation Calibzyme P
T2 sequence (P04746 16-511): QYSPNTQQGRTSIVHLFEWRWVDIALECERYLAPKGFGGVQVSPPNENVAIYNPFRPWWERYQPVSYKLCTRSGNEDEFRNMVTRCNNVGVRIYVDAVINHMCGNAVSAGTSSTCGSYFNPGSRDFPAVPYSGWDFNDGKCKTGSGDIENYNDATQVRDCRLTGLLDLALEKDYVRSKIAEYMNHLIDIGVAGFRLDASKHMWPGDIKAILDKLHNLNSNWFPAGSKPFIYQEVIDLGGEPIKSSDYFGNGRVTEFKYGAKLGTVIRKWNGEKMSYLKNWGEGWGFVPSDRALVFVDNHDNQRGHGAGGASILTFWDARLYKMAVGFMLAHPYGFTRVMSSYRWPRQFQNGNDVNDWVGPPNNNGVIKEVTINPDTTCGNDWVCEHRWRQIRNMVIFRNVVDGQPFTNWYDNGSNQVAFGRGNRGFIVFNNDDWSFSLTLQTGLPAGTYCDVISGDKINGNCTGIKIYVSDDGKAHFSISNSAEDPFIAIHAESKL
Experimental: as §1, §2, §3
(2) P-type Amylase (Calibzyme P, Manufactured by International Reagents Corporation)
as §4, §5, §6, §7, §8

- Change in absorbance, Containing Antibody (Composition C) ([1]; sodium azide 0 mM): 0.3 mABS/min
- Change in absorbance, Without antibody (Composition D) ([1]; sodium azide 0 mM): 4.7 mABS/min
- Relative sensitivity ([1]; sodium azide 0 mM): 10.2%
- Percent residual enzyme activity ([1]; sodium azide 0 mM): 6.4%
- Change in absorbance, Containing Antibody (Composition C) ([1]; sodium azide 30 mM): 0.9 mABS/min
- Change in absorbance, Without antibody (Composition D) ([1]; sodium azide 30 mM): 15.7 mABS/min
- Relative sensitivity ([1]; sodium azide 30 mM): 34.2%
- Percent residual enzyme activity ([1]; sodium azide 30 mM): 5.7%
- Change in absorbance, Containing Antibody (Composition C) ([1]; sodium azide 60 mM): 1.0 mABS/min
- Change in absorbance, Without antibody (Composition D) ([1]; sodium azide 60 mM): 22.4 mABS/min
- Relative sensitivity ([1]; sodium azide 60 mM): 48.8%
- Percent residual enzyme activity ([1]; sodium azide 60 mM): 4.5%
- Change in absorbance, Containing Antibody (Composition C) ([1]; sodium azide 90 mM): 1.6 mABS/min
- Change in absorbance, Without antibody (Composition D) ([1]; sodium azide 90 mM): 28.6 mABS/min
- Relative sensitivity ([1]; sodium azide 90 mM): 62.3%
- Percent residual enzyme activity ([1]; sodium azide 90 mM): 5.6%
- Change in absorbance, Containing Antibody (Composition C) ([1]; sodium azide 120 mM): 1.5 mABS/min
- Change in absorbance, Without antibody (Composition D) ([1]; sodium azide 120 mM): 31.0 mABS/min
- Relative sensitivity ([1]; sodium azide 120 mM): 67.5%
- Percent residual enzyme activity ([1]; sodium azide 120 mM): 4.8%
- Change in absorbance, Containing Antibody (Composition C) ([1]; sodium azide 150 mM): 1.6 mABS/min
- Change in absorbance, Without antibody (Composition D) ([1]; sodium azide 150 mM): 35.8 mABS/min
- Relative sensitivity ([1]; sodium azide 150 mM): 78.0%
- Percent residual enzyme activity ([1]; sodium azide 150 mM): 4.5%
- Change in absorbance, Containing Antibody (Composition C) ([1]; sodium azide 200 mM): 1.9 mABS/min
- Change in absorbance, Without antibody (Composition D) ([1]; sodium azide 200 mM): 41.1 mABS/min
- Relative sensitivity ([1]; sodium azide 200 mM): 89.5%
- Percent residual enzyme activity ([1]; sodium azide 200 mM): 4.6%
- Change in absorbance, Containing Antibody (Composition C) ([1]; sodium azide 250 mM): 2.2 mABS/min
- Change in absorbance, Without antibody (Composition D) ([1]; sodium azide 250 mM): 44.5 mABS/min
- Relative sensitivity ([1]; sodium azide 250 mM): 96.9%
- Percent residual enzyme activity ([1]; sodium azide 250 mM): 4.9%
- Change in absorbance, Containing Antibody (Composition C) ([1]; sodium azide 300 mM): 2.3 mABS/min
- Change in absorbance, Without antibody (Composition D) ([1]; sodium azide 300 mM): 45.9 mABS/min
- Relative sensitivity ([1]; sodium azide 300 mM): 100.0%
- Percent residual enzyme activity ([1]; sodium azide 300 mM): 5.0%
- percent inhibition of S-type amylase ([1]; irrespective of sodium azide concentrations, FIG. 4 and FIG. 5): around 95%
- Change in absorbance, Containing Antibody (Composition C) ([2]; sodium azide 0 mM): 9.4 mABS/min
- Change in absorbance, Without antibody (Composition D) ([2]; sodium azide 0 mM): 9.4 mABS/min
- Relative sensitivity ([2]; sodium azide 0 mM, G3CNP at 300 mM = 100): 20.6%
- Percent residual enzyme activity ([2]; sodium azide 0 mM): 100.0%
- Change in absorbance, Containing Antibody (Composition C) ([2]; sodium azide 30 mM): 19.8 mABS/min
- Change in absorbance, Without antibody (Composition D) ([2]; sodium azide 30 mM): 20.5 mABS/min
- Relative sensitivity ([2]; sodium azide 30 mM, G3CNP at 300 mM = 100): 45.0%
- Relative sensitivity ([2]; sodium azide 30 mM, G3CNP at 300 mM = 100, listed as Comparative Example 2): about 45%
- Percent residual enzyme activity ([2]; sodium azide 30 mM): 96.6%
- Change in absorbance, Containing Antibody (Composition C) ([2]; sodium azide 60 mM): 26.3 mABS/min
- Change in absorbance, Without antibody (Composition D) ([2]; sodium azide 60 mM): 26.0 mABS/min
- Relative sensitivity ([2]; sodium azide 60 mM, G3CNP at 300 mM = 100): 57.0%
- Percent residual enzyme activity ([2]; sodium azide 60 mM): 101.2%
- Change in absorbance, Containing Antibody (Composition C) ([2]; sodium azide 90 mM): 31.8 mABS/min
- Change in absorbance, Without antibody (Composition D) ([2]; sodium azide 90 mM): 32.0 mABS/min
- Relative sensitivity ([2]; sodium azide 90 mM, G3CNP at 300 mM = 100): 70.2%
- Percent residual enzyme activity ([2]; sodium azide 90 mM): 99.4%
- Change in absorbance, Containing Antibody (Composition C) ([2]; sodium azide 120 mM): 35.3 mABS/min
- Change in absorbance, Without antibody (Composition D) ([2]; sodium azide 120 mM): 33.7 mABS/min
- Relative sensitivity ([2]; sodium azide 120 mM, G3CNP at 300 mM = 100): 73.9%
- Percent residual enzyme activity ([2]; sodium azide 120 mM): 104.7%
- Change in absorbance, Containing Antibody (Composition C) ([2]; sodium azide 150 mM): 37.5 mABS/min
- Change in absorbance, Without antibody (Composition D) ([2]; sodium azide 150 mM): 37.1 mABS/min
- Relative sensitivity ([2]; sodium azide 150 mM, G3CNP at 300 mM = 100): 81.4%
- Percent residual enzyme activity ([2]; sodium azide 150 mM): 101.1%
- Change in absorbance, Containing Antibody (Composition C) ([2]; sodium azide 200 mM): 40.9 mABS/min
- Change in absorbance, Without antibody (Composition D) ([2]; sodium azide 200 mM): 41.3 mABS/min
- Relative sensitivity ([2]; sodium azide 200 mM, G3CNP at 300 mM = 100): 90.6%
- Percent residual enzyme activity ([2]; sodium azide 200 mM): 99.0%
- Change in absorbance, Containing Antibody (Composition C) ([2]; sodium azide 250 mM): 43.6 mABS/min
- Change in absorbance, Without antibody (Composition D) ([2]; sodium azide 250 mM): 42.8 mABS/min
- Relative sensitivity ([2]; sodium azide 250 mM, G3CNP at 300 mM = 100): 93.9%
- Percent residual enzyme activity ([2]; sodium azide 250 mM): 101.9%
- Change in absorbance, Containing Antibody (Composition C) ([2]; sodium azide 300 mM): 45.4 mABS/min
- Change in absorbance, Without antibody (Composition D) ([2]; sodium azide 300 mM): 45.6 mABS/min
- Relative sensitivity ([2]; sodium azide 300 mM, G3CNP at 300 mM = 100): 100.0%
- Percent residual enzyme activity ([2]; sodium azide 300 mM): 99.6%
Structure (SMILES): O=[N+]([O-])c1ccc(O[C@H]2O[C@H](CO)[C@@H](O[C@H]3O[C@H](CO)[C@@H](O[C@H]4O[C@H](CO)[C@@H](O)[C@H](O)[C@H]4O)[C@H](O)[C@H]3O)[C@H](O)[C@H]2O)c(Cl)c1 [Example G3CNP, 2-chloro-4-nitrophenylmaltotrioside, reference compound]
